This data set is described as follows: solvent given as SMILES.

This is an account of results in the Deep4Chem optical property database.

Regarding `CN(C)c1cccc2c1ccc1c(=O)oc(-c3ccc(C(F)(F)F)cc3)cc12`, the emission maximum reads like this: (in CC(C)=O) 611 nm; (in CCCCCCCCO) 585 nm; (in CCCCO) 586 nm; (in CCCO) 591 nm; (in CCO) 602 nm; (in CCOC(C)=O) 578 nm. The molecule also had an emission maximum (in CN(C)C=O) of 614 nm, an emission maximum (in CO) of 612 nm and an emission maximum (in ClC(Cl)Cl) of 538 nm.
In the case of `C1=Cc2ccc(N(c3ccccc3)c3cccc4ccccc34)cc2C2(c3cc(N(c4ccccc4)c4cccc5ccccc45)ccc31)c1ccccc1-c1ccccc12`, the emission maximum (in ClCCl) is reported as 454 nm.
For the molecule `Nc1ccc2c(c1)C(=O)NC2=O`, the emission maximum stood at 445 nm (in C1CCOC1); 435 nm (in C1COCCO1); 458 nm (in CC#N); 501 nm (in CC(C)(C)O); 457 nm (in CC(C)=O); 505 nm (in CC(C)O). Further, the emission maximum is 520 nm (in CCO); 425 nm (in CCOCC); 470 nm (in CN(C)C=O); 518 nm (in CO); 540 nm (in O).
For `COc1cc(OC)cc(C2=[O+][B-](F)(F)OC(c3ccc4ccccc4c3)=C2)c1`, the emission maximum is reported as 521.21 nm (in CC#N); 521.21 nm (in CC(C)=O); 418.89 nm (in CCCCCC); 492.31 nm (in Cc1ccccc1); 560 nm (in ClCCl).
The molecule `CC(C)(C)c1ccc(C2=Cc3cc4c(cc3P2(=O)c2ccccc2)C=C(c2ccc(C(C)(C)C)cc2)P4(=O)c2ccccc2)cc1` (stereo not given) came in with an emission maximum (in C1CCOC1) of 495 nm.
`CCCCOC(=O)c1cc(Oc2ccc(C(C)(C)C)cc2)c2c3c(Cl)cc4c5c(cc(Cl)c(c6c(Oc7ccc(C(C)(C)C)cc7)cc(C(=O)OCCCC)c1c26)c53)C(=O)N(c1c(C(C)C)cccc1C(C)C)C4=O` displayed an emission maximum (in Cc1ccccc1) of 589 nm.
In the case of `O=C1NC(=O)c2ccc3c4ccc5c6c(ccc(c7ccc1c2c73)c64)C(=O)N(c1ccc(Cl)cc1)C5=O`, for the setting “in CN(C)C=O”, the emission maximum is 536 nm.
Molecule `Cc1ccc(-c2c3nc(c(-c4ccc(C)cc4)c4ccc([nH]4)c(-c4ccc(OC(=O)C(C)c5ccc(Oc6ccccc6)cc5)cc4)c4nc(c(-c5ccc(C)cc5)c5ccc2[nH]5)C=C4)C=C3)cc1` (stereo not given) registered an emission maximum (in ClCCl) of 653 nm.
Take `COC(=O)C1=C(C(=O)OC)C2(c3ccccc3-c3c(C(=O)OC)cccc32)[C@@H](c2ccc(Cl)cc2)C=C2c3cc(OC)c(OC)cc3CCN21` (stereo not given in full): the emission maximum (in ClCCl) worked out at 439 nm.
Under “in ClCCl”, `CC(C)c1cccc(C(C)C)c1N1C(=O)c2ccc3c4c(-c5ccc(C(=O)O)cc5)c5ccc6c7c(cc8c9cc(C(=O)O)ccc9c(c9ccc(c2c39)C1=O)c4c8c57)C(=O)N(c1c(C(C)C)cccc1C(C)C)C6=O` gave an emission maximum of 626 nm.
With `c1ccc(C2=C3C4=C(C5=[N+]3[B-]3(Oc6ccccc65)Oc5ccccc5-c5c6c(c2n53)C2CCC6CC2)C2CCC4CC2)cc1` (stereo not given), under “in ClCCl”, the emission maximum was determined as 645 nm.
On to `O=C(O)C1=C/C(=C/C=[N+]2/c3cc(O)c(C[C@@H]4O[C@H](CO)[C@@H](O)C(O)[C@H]4O)cc3C[C@H]2C(=O)O)C[C@@H](C(=O)O)N1` (stereo not given in full), for which the emission maximum reads like this: (in CO) 611 nm; (in O) 640 nm; (in OCCO) 607 nm; (in [2H]O[2H]) 640 nm.
For `C(#Cc1nc(C#Cc2ccccc2)c(C#Cc2ccccc2)c(C#Cc2ccccc2)c1C#Cc1ccccc1)c1ccccc1`, the emission maximum (in ClCCl) is 438 nm.
Under “in ClC(Cl)Cl”, `CN1C(=CC2=C([O-])C(=Cc3sc4ccccc4[n+]3C)C2=C(C#N)C#N)Sc2ccccc21` yielded an emission maximum of 723 nm.
Consider `CCCCCCOC(=O)/C=C/C1=CC2=C(c3c(C)cc(C)cc3C)c3cc(/C=C/C(=O)OCCCCCC)cn3[B-](F)(F)[N+]2=C1`, for which the emission maximum (in ClCCl) was found to be 606 nm.
Take `c1ccc(N(c2ccccc2)c2ccc3c4cccc5c(N(c6ccccc6)c6ccccc6)ccc(c6cccc2c63)c54)cc1`: the emission maximum was determined as 531 nm (in C1CCCCC1); 545 nm (in C1CCOC1); 548 nm (in CC#N); 541 nm (in Cc1ccccc1); 547 nm (in ClCCl).
Molecule `COc1ccc2c(c1)c1cc(OC)ccc1n2-c1ccc2c(c1)-c1cc(-n3c4ccc(OC)cc4c4cc(OC)ccc43)ccc1P2(=O)c1ccccc1` gave an emission maximum (in Cc1ccccc1) of 476 nm and an emission maximum (in c1ccc2c(c1)c1ccccc1n2-c1ccc(-c2ccc(-n3c4ccccc4c4ccccc43)cc2)cc1) of 490 nm.
`CCCN1/C(=C\c2c(-c3ccc(N(C)C)cc3)c(=O)c2=O)C=Cc2ccccc21` showed an emission maximum (in C1CCCCC1) of 428 nm, an emission maximum (in Cc1ccccc1) of 435 nm and an emission maximum (in ClCCl) of 585 nm.
For `CCCCCC(=O)c1ccc2c3c(sc2c1)-c1ccccc1P3(=O)c1ccccc1` (stereo not given), the emission maximum (in ClCCl) was 428 nm.
Same read-out and setting: as for `COC(=O)CCC1=CC(C#Cc2ccsc2)=[N+]2C1=Cc1c(CCC(=O)OC)cc(C#Cc3ccsc3)n1[B-]2(F)F`, the figure is 653 nm.
For `CC(C)(C)c1ccc2c(c1)c1cc(C(C)(C)C)ccc1n2-c1ccccc1-c1nc(-c2ccccc2P(=O)(c2ccccc2)c2ccccc2)nc(-c2ccccc2P(=O)(c2ccccc2)c2ccccc2)n1`, the emission maximum runs as follows: (in C1CCOC1) 515.1 nm; (in CC#N) 548.81 nm; (in CC(C)=O) 532.75 nm; (in CN(C)C=O) 539.75 nm; (in Cc1ccccc1) 498.41 nm; (in ClC(Cl)Cl) 511.13 nm. The emission maximum by setting is: (in ClCCl) 526.23 nm; (in O=P(c1ccccc1)(c1ccccc1)c1ccccc1Oc1ccccc1P(=O)(c1ccccc1)c1ccccc1) 504 nm.
The molecule `CCCCCCCCCCC(CCCCCCCCCC)Cn1c2cc(-c3ccc(C(C)(C)C)cc3)c3cccc4c5ccc6c7cc(-c8cc(C(C)(C)C)cc(C(C)(C)C)c8)n8c7c(c7cc1c(c5c76)c2c34)=C1C=CC(c2cc(C(C)(C)C)cc(C(C)(C)C)c2)=[N+]1[B-]8(F)F` came in with an emission maximum (in Cc1ccccc1) of 830 nm.
`CC(C)=CC(=O)c1cc2c(cc1F)NC(C)(C)CC2=O`: the emission maximum by setting is: (in CC#N) 422 nm; (in CCO) 459 nm.
As to `CCn1c2ccccc2c2cc(-c3cc(-c4ccc5c(c4)c4ccccc4n5CC)nc(-c4ccc(OC)cc4)n3)ccc21`, the emission maximum (in C1CCOC1) is recorded as 385 nm; the emission maximum (in CCOC(C)=O) is on record as 384 nm; the emission maximum (in CN(C)C=O) is 414 nm; the emission maximum (in Cc1ccccc1) is reported as 379 nm; the emission maximum (in ClCCl) was determined as 404 nm.
For the molecule `Cc1cc(O)c(C(=O)/C=C/c2ccc(N(C)C)cc2)c(=O)o1`, the emission maximum reads like this: (in CC#N) 561 nm; (in ClCCl) 573 nm.
On to `CN(C)CCCN1c2ccccc2CCc2ccc(Cl)cc21`, for which the emission maximum was 348 nm (in CC#N), 353 nm (in CO) and 400 nm (in O).
Take `O=S(=O)(c1ccccc1)c1ccc(-c2ccc3c(c2)c2cc(-c4ccc(S(=O)(=O)c5ccccc5)cc4)ccc2n3-c2ccccc2)cc1`: the emission maximum (in CCCCCC) was 377 nm; the emission maximum (in CN(C)C=O) worked out at 431 nm; the emission maximum (in CO) came out at 434 nm; the emission maximum (in Cc1ccccc1) was 381 nm; the emission maximum (in ClCCl) amounted to 395 nm.
`COc1ccc(-c2cn3cc(C)c[n+]3[n-]2)cc1` gave an emission maximum (in ClCCl) of 421 nm.
The same measure, in the same setting: to `Cc1cc(-c2cccc3ccccc23)cc(C)[o+]1` belongs 554 nm.
